From patent publication US12668568B2, “Adamantanyl-substituted benzamide compounds and their use as P2X7 receptor antagonists” (The University of Sydney, priority 2018, dated 2026)

Legend:
P-gp (human MDR1) = assay: MDCK P-glycoprotein bidirectional permeability assay; assay type: in vitro ADME, canine; conditions: dog, 30 minute, 37° C.; for Papp A→B at 30 min, 10 μM: apical to basolateral; for Papp B→A at 30 min, 10 μM: basolateral to apical
Procedure: The transcellular permeability of test compounds and the influence of Pgp-mediated efflux on drug permeability was assessed using hMDR1-MDCK monolayers grown on filter supports. All compounds were dissolved in 100% DMSO to provide 10 mM stock solutions from which donor (dose) solutions were prepared in DMEM to give a final drug concentration of 10 μM. All dose solutions contained 10 μM propranolol as an internal standard. hMDR1-MDCK seeded filters were exposed to a fixed volume of the donor solution containing the compound of interest and its ability to traverse the monolayer and appear in the receiver compartment measured over a 30 minute period at 37° C. Bidirectional permeability measurements were derived by examining the transfer of compound in both the apical to basolateral compartment, and vice versa. Sample analysis was conducted using LC-MS/MS with the detection settings optimised for each test compound. Following analysis of the samples the apparent permeability coefficient (Papp, cm/sec) for the discovery compounds is determined using the following relationship: [formula] • VR=Volume of the receiver compartment • A=Surface area of the filter • CD=Drug concentration in the donor concentration • Δt=incubation time • ΔCR=the amount of drug detected in the receiver compartment The efflux ratio can be determined from these values by calculating the ratio of the Papp values derived in the B-A direction and A-B direction (i.e. Papp B-A/Papp A-B). […] P-gp) influencing transport.

CYP1A2 = target: T1, CYP1A2 (Homo sapiens, UniProt P05177); assay: Cytochrome profiling CYP1A2 (baculosomes); assay type: in vitro ADME; conditions: probe fluorogenic probe substrate (not named), 10 μM substrate
T1 construct: host or cells: insect cells infected with recombinant baculovirus (microsomes)
T1 sequence (P05177 1-516): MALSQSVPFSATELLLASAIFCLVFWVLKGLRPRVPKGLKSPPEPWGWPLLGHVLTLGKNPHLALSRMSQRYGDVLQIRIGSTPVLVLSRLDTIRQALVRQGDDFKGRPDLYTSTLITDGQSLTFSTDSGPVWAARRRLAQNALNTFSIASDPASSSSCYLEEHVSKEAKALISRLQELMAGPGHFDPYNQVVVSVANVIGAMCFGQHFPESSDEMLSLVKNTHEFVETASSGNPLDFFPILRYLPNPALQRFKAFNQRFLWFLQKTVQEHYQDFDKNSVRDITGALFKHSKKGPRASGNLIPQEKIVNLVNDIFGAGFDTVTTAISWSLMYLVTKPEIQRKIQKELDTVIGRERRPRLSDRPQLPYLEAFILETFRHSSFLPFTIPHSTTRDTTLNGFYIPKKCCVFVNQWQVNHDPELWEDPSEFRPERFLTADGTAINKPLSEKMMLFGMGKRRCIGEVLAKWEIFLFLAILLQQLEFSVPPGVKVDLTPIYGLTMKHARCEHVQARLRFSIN
Description: Cytochrome P450 (abbreviated CYP, P450 or CYP450) belong to very large and diverse superfamily of haemoproteins which accept both exogenous and endogenous compounds as substrates in enzymatic reactions and play a major role in drug metabolism. Although this class has more than 50 enzymes just 5 of them (CYP1A2, CYP2C9, CYP2C19, CYP2D6 and CYP3A4) are able to metabolise almost 90% of all drugs. Inhibition of these enzymes is one of the major reasons for drug-drug interactions. Consequently, detailed CYP inhibition profiles are a regulatory requirement for all new drugs. Inhibition potencies against the five most relevant CYP isoforms is performed using baculosomes; microsomes prepared from insect cells infected with recombinant baculovirus containing cDNA for a specific human P450 isozyme. The baculosomes are incubated with drug at a concentration of 1 μM in the presence of a probe substrate for 60 minutes at 37° C. The probe is normally metabolised by the baculosomes to produce a fluorescent metabolite. A substrate drug will compete for the isozyme and reduce the metabolism of the probe resulting in a decrease in the fluorescent signal. The percent inhibition due to the presence of the test compound is calculated using the following equation: [formula] • X=fluorescent intensity observed in the presence of test compound • A=fluorescent intensity observed in control • B=fluorescent intensity observed in the presence of the probe control

hP2X7R = target: T2, hP2X7R (Homo sapiens, UniProt Q99572); assay: Yo-Pro uptake assay for P2X7R pore formation in THP-1 cells; assay type: cell-based; parameters: Following an overnight incubation (16 h) required for THP-1 differentiation; endogenous in cells; host or cells: THP-1 (ATCC), differentiated with LPS and IFN-gamma; conditions: for IC50: THP-1 cells, BzATP 100 μM, YO-PRO-1, mean ± standard deviation, n >4, read-out: Dye uptake IC50 hP2X7R; for LLE: pIC50 from dye uptake and LogD from HPLC
T2 sequence (Q99572 1-595): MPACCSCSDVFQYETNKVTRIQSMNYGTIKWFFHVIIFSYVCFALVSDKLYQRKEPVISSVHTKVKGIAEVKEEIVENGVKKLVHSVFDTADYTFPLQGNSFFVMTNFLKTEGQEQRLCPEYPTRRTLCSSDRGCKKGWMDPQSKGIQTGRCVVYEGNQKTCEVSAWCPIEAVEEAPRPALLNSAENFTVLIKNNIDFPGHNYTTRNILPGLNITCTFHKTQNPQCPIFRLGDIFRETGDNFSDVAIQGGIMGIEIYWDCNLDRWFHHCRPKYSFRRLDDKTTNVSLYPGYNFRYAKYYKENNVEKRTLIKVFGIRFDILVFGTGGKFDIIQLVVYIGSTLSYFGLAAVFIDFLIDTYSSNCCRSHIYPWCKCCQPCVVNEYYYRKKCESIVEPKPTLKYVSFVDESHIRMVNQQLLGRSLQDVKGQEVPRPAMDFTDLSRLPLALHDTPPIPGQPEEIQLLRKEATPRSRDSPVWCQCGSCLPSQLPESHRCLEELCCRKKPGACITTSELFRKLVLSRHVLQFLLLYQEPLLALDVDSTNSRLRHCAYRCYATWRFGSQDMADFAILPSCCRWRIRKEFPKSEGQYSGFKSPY
Procedure: HEK293T cells transfected with cDNA for the human (HEK-hP2X7) or mouse P2X7 (HEK-mP2X7) receptor (a kind gift from Dr Leanne Stokes and Prof. Jim Wiley) were cultured in DMEM/F12 with 10% FBS and 500 μg/mL G418 (all from Invitrogen). Cells were cultured in 75 cm^2 flasks and incubated at 37° C. in a 5% CO2 humidified atmosphere, maintained in log phase of growth and passaged when cell density reached 1×10^6 cells/mL (every 2-3 days).^3
P2X7R pore formation was assessed by agonist-induced uptake of the Yo-Pro-1 iodide dye. […] Final treatments (in triplicate) were made up in phosphate buffered saline (PBS), without divalent cations, containing PRO®-1 dye (2 μM). Cells were washed once in pre-warmed PBS and treatments were added to cells, with or without 2′(3′)-O-(4-benzoylbenzoyl)adenosine 5′-triphosphate (BzATP, 100 μM) as agonist. Dye uptake was measured at 37° C. using a fluorescence plate reader (BMG Labtech); with data read at λEx485nm/λEm520nm at 30 sec intervals over a 70 min period. […] IC50 values were determined from concentration-response curves derived from a four-parameter variable slope, analyzed in GraphPad Prism® (San Diego, CA).

Structure (SMILES)	Papp A→B at 30 min, 10 μM (P-gp (human MDR1)) [×10⁻⁶ cm/s]	Papp B→A at 30 min, 10 μM (P-gp (human MDR1)) [×10⁻⁶ cm/s]	inhibition at 60 min, 1 μM (CYP1A2) [%]	IC50 (hP2X7R) [nM]	LLE (hP2X7R)
COc1ccc(Cl)c(C(=O)NCC23CC4CC(CC(C4)C2)C3)c1 [Compound 31, reference compound]	40.9	23.6	25.7	10.5 ± 3.1	3.75
COc1ccc(Cl)c(C(=O)NCC23CC4CC(F)(CC(F)(C4)C2)C3)c1 [Compound 2, 2-Chloro-N-((3,5-difluoroadamantan-1-yl)methyl)-5-methoxybenzamide]	40	54.8	7.04	30.9 ± 8	4.66
COc1ccc(Cl)c(C(=O)NCC23CC4CC(CC(F)(C4)C2)C3)c1 [Compound 3, 2-Chloro-N-((3-fluoroadamantan-1-yl)methyl)-5-methoxybenzamide]	28.1	34.3	7.86	25.1 ± 2.7	4.33
COc1ccc(Cl)c(C(=O)NCC23CC4(F)CC(F)(CC(F)(C4)C2)C3)c1 [Compound 1, 2-Chloro-N-((3,5,7-trifluoroadamantan-1-yl)methyl)-5-methoxybenzamide]	30.3	44.2	5.48	–	–
